Where two headings read alike, the source gives them in different places.

One may read the IC50 as the concentration that gives 50% inhibition.

In assay [1] the target is T1, full-length beta-Catenin (Uniprot ID P35222) (Homo sapiens, UniProt P35222).
T1 construct: 10 nM full-length beta-Catenin (Uniprot ID P35222)
T1 sequence (P35222 1-781): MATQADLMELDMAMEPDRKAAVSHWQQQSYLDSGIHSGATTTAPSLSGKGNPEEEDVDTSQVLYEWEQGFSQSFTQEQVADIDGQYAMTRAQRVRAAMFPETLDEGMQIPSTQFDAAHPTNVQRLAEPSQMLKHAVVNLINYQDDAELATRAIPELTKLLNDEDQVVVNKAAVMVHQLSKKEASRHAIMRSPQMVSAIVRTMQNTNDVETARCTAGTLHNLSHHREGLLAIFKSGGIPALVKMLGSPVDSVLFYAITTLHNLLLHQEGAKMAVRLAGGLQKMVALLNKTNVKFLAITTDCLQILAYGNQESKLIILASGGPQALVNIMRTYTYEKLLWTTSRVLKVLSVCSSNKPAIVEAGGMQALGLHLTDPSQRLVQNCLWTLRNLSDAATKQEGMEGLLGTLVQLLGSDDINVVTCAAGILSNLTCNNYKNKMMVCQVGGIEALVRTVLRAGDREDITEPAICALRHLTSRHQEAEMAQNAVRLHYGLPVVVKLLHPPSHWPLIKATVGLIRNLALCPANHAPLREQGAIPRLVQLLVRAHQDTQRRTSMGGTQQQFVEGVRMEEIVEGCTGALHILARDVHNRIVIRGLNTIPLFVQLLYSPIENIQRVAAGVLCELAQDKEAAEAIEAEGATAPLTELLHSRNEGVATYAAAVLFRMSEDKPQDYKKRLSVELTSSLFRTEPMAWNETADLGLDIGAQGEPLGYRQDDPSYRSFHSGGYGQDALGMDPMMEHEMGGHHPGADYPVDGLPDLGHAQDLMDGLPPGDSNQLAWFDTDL
Nature of the assay: Fluorescence polarization IC50 (beta-catenin / 5FAM-TCF4 10-53 competition). In kind it is binding. Conditions: fluorescence polarization; read-out: beta-Catenin FP IC50. On the technique in general: Polarisation of emitted light reports the rotation of a fluorescent probe.

Assay [2] concerns the target T2, beta-catenin/TCF4 engagement (Homo sapiens, UniProt P35222).
T2 construct: expressed in transfected cells; host or cells: HEK293
T2 sequence (P35222 1-781): T1 sequence (P35222 1-781)
Nature of the assay: Nano-BRET target engagement assay (B-cat-Halo & TCF4-Luc in HEK293 cells). In kind it is cell-based. Conditions: read-out: NanoBRET Abs IC50. On the technique in general: Bioluminescence resonance energy transfer reports proximity on the nanometre scale.

Take `CC(=O)N1CCC[C@]12CC=CCCCC1(CCCC=CCCCOC(=O)N3CC[C@@](C(=O)N[C@@H](Cc4ccccc4C(F)(F)F)C(=O)N[C@@H](Cc4csc5ccccc45)C(=O)N[C@@H](CO)C(N)=O)(C3)NC(=O)[C@H](CC(C)C)NC(=O)[C@H](Cc3ccccc3)NC(=O)[C@H](C)NC(=O)[C@H](C)NC(=O)[C@H](Cc3ccccc3C(=O)O)NC(=O)[C@H](CC(=O)O)NC1=O)NC(=O)[C@H](CC(C)(C)C)NC(=O)[C@H](CC(=O)O)NC2=O` (single isomer, unassigned) [I-1661, Ac-PL3-Asp-Npg-B5-Asp-2COOHF-Ala-Ala-Phe-Leu-PyrS2-2F3MeF-BztA-Ser-NH2]: the figures for the IC50 in assay [1] and in assay [2] (absolute IC50) were 0.07 µM and 8.3 µM, respectively.

Take `CC(=O)N1CCC[C@]12CC=CCCCC1(CCCC=CCCCOC(=O)N3CC[C@@](C(=O)N[C@@H](Cc4ccsc4)C(=O)N[C@@H](Cc4csc5ccccc45)C(=O)N[C@@H](CO)C(N)=O)(C3)NC(=O)[C@H](Cc3ccccc3)NC(=O)[C@H](Cc3ccccc3)NC(=O)[C@H](C)NC(=O)[C@H](C)NC(=O)[C@H](Cc3ccccc3C(=O)O)NC(=O)[C@H](CC(=O)O)NC1=O)NC(=O)[C@H](CC(C)(C)C)NC(=O)[C@H](CC(=O)O)NC2=O` (single isomer, unassigned) [I-1664, Ac-PL3-Asp-Npg-B5-Asp-2COOHF-Ala-Ala-Phe-Phe-PyrS2-3Thi-BztA-Ser-NH2]: the IC50 in assay [1] was 0.022 µM; in assay [2] (absolute IC50), 8 µM.

Regarding `CC(=O)N1CCC[C@]12CC=CCCCC1(CCCC=CCCCOC(=O)N3CC[C@@](C(=O)N[C@@H](Cc4ccsc4)C(=O)N[C@@H](Cc4csc5ccccc45)C(=O)N[C@@H](CO)C(N)=O)(C3)NC(=O)[C@H](Cc3ccccc3)NC(=O)[C@H](Cc3ccccc3)NC(=O)[C@H](C)NC(=O)[C@H](C)NC(=O)[C@H](Cc3ccccc3C(=O)O)NC(=O)[C@H](CC(=O)O)NC1=O)NC(=O)[C@H](CC(C)(C)C)NC(=O)[C@H](CC(=O)O)NC2=O` (single isomer, unassigned) [I-1665, Ac-PL3-Asp-Npg-B5-Asp-2COOHF-Ala-Ala-Phe-Phe-PyrS2-3Thi-BztA-Ser-NH2], the results for the IC50 in assay [1] and in assay [2] (absolute IC50) were 0.017 µM and 9.7 µM, respectively.

For the molecule `CC(=O)N1CCC[C@]12CC=CCCCC1(CCCC=CCCCOC(=O)N3CC[C@@](C(=O)N[C@@H](Cc4ccsc4)C(=O)N[C@@H](Cc4csc5ccccc45)C(=O)N[C@@H](CO)C(N)=O)(C3)NC(=O)[C@H](CC(C)C)NC(=O)[C@H](Cc3ccccc3)NC(=O)[C@H](C)NC(=O)[C@H](C)NC(=O)[C@H](Cc3ccccc3C(=O)O)NC(=O)[C@H](CC(=O)O)NC1=O)NC(=O)[C@H](CC(C)(C)C)NC(=O)[C@H](CC(=O)O)NC2=O` (single isomer, unassigned) [I-1666, Ac-PL3-Asp-Npg-B5-Asp-2COOHF-Ala-Ala-Phe-Leu-PyrS2-3Thi-BztA-Ser-NH2], the IC50 in assay [1] came out at 0.015 µM; in assay [2] (absolute IC50), 6.5 µM.

`CC(=O)N1CCC[C@]12CC=CCCCC1(CCCC=CCCCOC(=O)N3CC[C@@](C(=O)N[C@@H](Cc4ccsc4)C(=O)N[C@@H](Cc4csc5ccccc45)C(=O)N[C@H](CO)[C@@H](C)O)(C3)NC(=O)[C@H](Cc3ccccc3)NC(=O)[C@H](Cc3ccccc3)NC(=O)[C@H](C)NC(=O)[C@H](C)NC(=O)[C@H](Cc3ccccc3C(=O)O)NC(=O)[C@H](CC(=O)O)NC1=O)NC(=O)[C@H](CC(C)(C)C)NC(=O)[C@H](CC(=O)O)NC2=O` (single isomer, unassigned) [I-1668, Ac-PL3-Asp-Npg-B5-Asp-2COOHF-Ala-Ala-Phe-Phe-PyrS2-3Thi-BztA-Thro1]: the IC50 in assay [1] was found to be 0.029 µM; in assay [2] (absolute IC50), 16.4 µM.

In the case of `CC(=O)N1CCC[C@]12CC=CCCCC1(CCCC=CCCCOC(=O)N3CC[C@@](C(=O)N[C@@H](Cc4ccsc4)C(=O)N[C@@H](Cc4csc5ccccc45)C(=O)N[C@H](CO)[C@@H](C)O)(C3)NC(=O)[C@H](Cc3ccccc3)NC(=O)[C@H](Cc3ccccc3)NC(=O)[C@H](C)NC(=O)[C@H](C)NC(=O)[C@H](Cc3ccccc3C(=O)O)NC(=O)[C@H](CC(=O)O)NC1=O)NC(=O)[C@H](CC(C)(C)C)NC(=O)[C@H](CC(=O)O)NC2=O` (single isomer, unassigned) [I-1669, Ac-PL3-Asp-Npg-B5-Asp-2COOHF-Ala-Ala-Phe-Phe-PyrS2-3Thi-BztA-Thro1], the IC50 in assay [1] stood at 0.03 µM; in assay [2] (absolute IC50) it was 11.8 µM.

As for `CC(=O)N1CCC[C@]12CC=CCCCC1(CCCC=CCCCOC(=O)N3CC[C@@](C(=O)N[C@@H](Cc4ccsc4)C(=O)N[C@@H](Cc4csc5ccccc45)C(=O)N[C@H](CO)[C@@H](C)O)(C3)NC(=O)[C@H](CC(C)C)NC(=O)[C@H](Cc3ccccc3)NC(=O)[C@H](C)NC(=O)[C@H](C)NC(=O)[C@H](Cc3ccccc3C(=O)O)NC(=O)[C@H](CC(=O)O)NC1=O)NC(=O)[C@H](CC(C)(C)C)NC(=O)[C@H](CC(=O)O)NC2=O` (single isomer, unassigned) [I-1670, Ac-PL3-Asp-Npg-B5-Asp-2COOHF-Ala-Ala-Phe-Leu-PyrS2-3Thi-BztA-Thro1], the concentration for half-maximal inhibition (IC50) in assay [1] was determined as 0.011 µM; in assay [2] (absolute IC50), 7.9 µM.

For `CC(=O)N1CCC[C@]12CC=CCCCC1(CCCC=CCCCOC(=O)N3CC[C@@](C(=O)N[C@@H](Cc4ccsc4)C(=O)N[C@@H](Cc4csc5ccccc45)C(=O)N[C@@H](CCC(N)=O)C(N)=O)(C3)NC(=O)[C@H](CC(C)C)NC(=O)C(Cc3cccc(C(=O)Oc4ccccc4)c3)NC(=O)[C@H](C)NC(=O)[C@H](C)NC(=O)[C@H](CN(CC(=O)O)CC(F)(F)F)NC(=O)[C@H](CC(=O)O)NC1=O)NC(=O)[C@H](CC(C)(C)C)NC(=O)[C@H](CC(=O)O)NC2=O` (single isomer, unassigned) [I-2151, Ac-PL3-Asp-Npg-B5-Asp-TfeGA-Ala-Ala-3CO2PhF-Leu-PyrS2-3Thi-BztA-Gln-NH2], the IC50 worked out at 0.058 µM in assay [1] and 14.6 µM in assay [2].

`CC(=O)N1CCC[C@]12CC=CCC1(CC=CCCCCCOC(=O)N3CC[C@](C(=O)N[C@@H](Cc4ccsc4)C(=O)N[C@@H](Cc4csc5ccccc45)C(=O)N[C@@H](CCC(N)=O)C(N)=O)(C3)NC(=O)[C@H](CC(C)C)NC(=O)[C@H](Cc3ccccc3)NC(=O)[C@H](C)NC(=O)[C@H](C)NC(=O)[C@H](CC(=O)O)NC(=O)[C@H](CC(=O)O)NC1=O)NC(=O)[C@H](CC(C)(C)C)NC(=O)[C@H](CC(=O)O)NC2=O` (single isomer, unassigned) [I-2158, Ac-PL3-Asp-Npg-B3-Asp-Asp-Ala-Ala-Phe-Leu-PyrS4-3Thi-BztA-Gln-NH2]: the half-maximal inhibitory concentration (IC50) in assay [1] was 0.213 µM; in assay [2] it was over 20 µM.

For the molecule `CC(=O)N1CCC[C@]12CC=CCC1(CC=CCCCCCOC(=O)N3CC[C@](C(=O)N[C@@H](Cc4ccsc4)C(=O)N[C@@H](Cc4csc5ccccc45)C(=O)N[C@@H](CCC(N)=O)C(N)=O)(C3)NC(=O)[C@H](CC(C)C)NC(=O)[C@H](Cc3ccccc3)NC(=O)[C@H](C)NC(=O)[C@H](C)NC(=O)[C@H](CC(=O)O)NC(=O)[C@H](CC(=O)O)NC1=O)NC(=O)[C@H](CC(C)(C)C)NC(=O)[C@H](CC(=O)O)NC2=O` (single isomer, unassigned) [I-2159, Ac-PL3-Asp-Npg-B3-Asp-Asp-Ala-Ala-Phe-Leu-PyrS4-3Thi-BztA-Gln-NH2], the IC50 was 0.116 µM in assay [1] and over 20 µM in assay [2].

For the molecule `CC(=O)N1CCC[C@]12CC=CCCCC1(CCCC=CCCCCCC[C@@](C)(C(=O)N[C@@H](Cc3ccccc3)C(=O)N[C@@H](Cc3csc4ccccc34)C(=O)N[C@@H](CCC(N)=O)C(N)=O)NC(=O)[C@H](CCO)NC(=O)[C@H](Cc3ccccc3)NC(=O)[C@H](C)NC(=O)[C@H](C)NC(=O)[C@H](CCC(=O)O)NC(=O)[C@H](CC(=O)O)NC1=O)NC(=O)[C@H](CO)NC(=O)[C@H](CC(=O)O)NC2=O` (stereo partly drawn) [I-1529, Ac-PL3-Asp-Ser-B5-Asp-Glu-Ala-Ala-Phe-Hse-S8-Phe-BztA-Gln-NH2], the IC50 in assay [2] (absolute IC50) was over 20 µM.

Turning to `CCN(CC)C(=O)[C@H](CCC(N)=O)NC(=O)[C@H](Cc1csc2ccccc12)NC(=O)[C@H](Cc1ccsc1)NC(=O)[C@]12CCN(C1)C(=O)OCCCC=CCCCC1(CCCC=CC[C@]3(CCCN3C(C)=O)C(=O)N[C@@H](CC(=O)O)C(=O)N[C@@H](CC(C)(C)C)C(=O)N1)C(=O)N[C@@H](CC(=O)O)C(=O)N[C@@H](CN(CC(=O)O)CC(F)(F)F)C(=O)N[C@@H](C)C(=O)N[C@@H](C)C(=O)N[C@@H](Cc1ccccc1)C(=O)N[C@@H](CC(N)=O)C(=O)N2` (stereo partly drawn) [I-1641, Ac-PL3-Asp-Npg-B5-Asp-TfeGA-Ala-Ala-Phe-Asn-PyrS2-3Thi-BztA-Gln-NEt2], the IC50 in assay [2] (absolute IC50) amounted to 14.7 µM.

Regarding `CC(=O)N1CCC[C@]12CC=CCCCC1(CCCC=CCCCOC(=O)N3CC[C@@](C(=O)N[C@@H](Cc4ccsc4)C(=O)N[C@@H](Cc4csc5ccccc45)C(=O)N[C@@H](CCC(N)=O)C(N)=O)(C3)NC(=O)[C@H](CC(N)=O)NC(=O)[C@H](Cc3ccccc3)NC(=O)[C@H](C)NC(=O)C3(CC3)NC(=O)[C@H]([C@@H](C)O)NC(=O)[C@H](CC(N)=O)NC1=O)NC(=O)[C@H](CC(C)(C)C)NC(=O)[C@H](CC(=O)O)NC2=O` (stereo partly drawn) [I-2492, Ac-PL3-Asp-Npg-B5-Asn-Thr-Cpg-Ala-Phe-Asn-PyrS2-3Thi-BztA-Gln-NH2], in assay [2] (absolute IC50), the concentration for half-maximal inhibition (IC50) is over 20 µM.
